Experimental data: patent US10111866B2, “Compounds as rearranged during transfection (RET) inhibitors” (GLAXOSMITHKLINE INTELLECTUAL PROPERTY DEVELOPMENT LIMITED, priority 2015, dated 2018)

What was measured:
Human RET kinase = Human RET kinase (Homo sapiens (Human), UniProt P07949); experiment: RET kinase enzymatic assay; type: biochemical; conditions: GST-RET cytoplasmic domain, HTRF readout
Procedure: RET Kinase Enzymatic Assay
Human RET kinase cytoplasmic domain (amino acids 658-1114 of accession number NP_000314.1) was expressed as an N-terminal GST-fusion protein using a baculovirus expression system. GST-RET was purified using glutathione sepharose chromatography. The RET kinase enzymatic assay was performed in a total volume of 10 uL with increasing concentrations of RET kinase inhibitor as a singlet in a 384 well format as follows: RET inhibitor compound plates are prepared by adding 100 nL of RET inhibitor at different concentrations to a 384-well plate. 5 μL/well of a 2× enzyme mix (50 mM HEPES (4-(2-hydroxyethyl)-1-piperazineethanesulfonic acid); 1 mM CHAPS (3-[(3-cholamidopropyl)dimethylammonio]-1-propane sulfonate); 0.1 mg/mL BSA (bovine serum albumin); 1 mM DTT (dithiothreitol); 0.2 nM RET kinase) was added to the 384-well plate and incubated for 30 minutes at 23° C. […] 10 μL/well of 2× stop/detection mix (50 mM HEPES; 0.1% BSA; 800 mM Potassium Fluoride; 50 mM EDTA (Ethylenediaminetetraacetic acid); 200× dilution of Europium Cryptate labeled anti-phosphotyrosine antibody; 62.5 nM Streptavidin-XL665) incubated for 1 hour at 23° C. and read on a Homogenous Time-Resolved Fluorescence reader. […]

TT cells = experiment: RET kinase cell-based proliferation assay (TT cells, CellTiter-Glo); conditions: Homo sapiens, 192 h, eight days
Procedure: RET Kinase Cell-Based Proliferation Assay
The potency of the compounds of the invention were tested for its ability to inhibit cell proliferation and cell viability. TT cells (ATCC CRL-1803), a medullary thyroid cancer cell line with constitutively activated RET kinase, were maintained in 150 cm^2 dishes in F12 Kaighn's medium, 10% fetal bovine serum, 1× Glutamax, 1× non-essential amino acids, 1× Pen/Strep antibiotics at 37° C. in 5% carbon dioxide. 6.0E3 TT cells/well in 50 μL of media were added to a 96-well cell culture plate and allowed to adhere overnight. 50 μL of serially diluted RET inhibitor compounds were added to 96-well plate containing cultured TT cells and incubated at 37° C. in 5% carbon dioxide for eight days. 50 μL of CellTiter-Glo (Promega #G-7573) was added, contents mixed for 1 minute on shaker followed by 10 minutes in the dark at 23° C. and the luminescence read by EnVision (PerkinElmer). IC50s were fitted using GraphPad Prism to a sigmoidal dose response.

Human RET kinase, sequence (P07949 658-1114): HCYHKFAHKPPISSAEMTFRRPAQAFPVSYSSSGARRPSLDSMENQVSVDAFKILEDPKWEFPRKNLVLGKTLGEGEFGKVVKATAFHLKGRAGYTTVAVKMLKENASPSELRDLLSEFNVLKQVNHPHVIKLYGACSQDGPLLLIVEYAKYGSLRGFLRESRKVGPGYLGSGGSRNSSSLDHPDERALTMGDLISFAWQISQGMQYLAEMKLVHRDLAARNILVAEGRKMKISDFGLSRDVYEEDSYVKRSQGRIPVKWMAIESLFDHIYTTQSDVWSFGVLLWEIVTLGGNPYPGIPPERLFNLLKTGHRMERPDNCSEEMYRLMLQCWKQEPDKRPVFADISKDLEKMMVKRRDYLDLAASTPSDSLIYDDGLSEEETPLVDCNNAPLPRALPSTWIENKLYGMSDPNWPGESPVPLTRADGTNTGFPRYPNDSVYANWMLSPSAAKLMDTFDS

| IC50 (Human RET kinase) [µM] | Compound | IC50 (TT cells) [µM] |
| --- | --- | --- |
| ≤ 0.01 | CCOc1cc(=O)[nH]cc1-c1ccc(CC(=O)Nc2cc(C(=O)NCCN(C)C)cc(C(F)(F)F)c2)c(F)c1 [Example 1, N-(2-(dimethylamino)ethyl)-3-(2-(4-(4-ethoxy-6-oxo-1,6-dihydropyridin-3-yl)-2-fluorophenyl)acetamido)-5-(trifluoromethyl)benzamide] | 0.01 to 0.1 |
| ≤ 0.01 | CCOc1cc(=O)[nH]cc1-c1ccc(CC(=O)Nc2cc(OCCN(C)C)cc(C(F)(F)F)c2)c(F)c1 [Example 2, N-(3-(2-(dimethylamino)ethoxy)-5-(trifluoromethyl)phenyl)-2-(4-(4-ethoxy-6-oxo-1,6-dihydropyridin-3-yl)-2-fluorophenyl)acetamide] | 0.01 to 0.1 |
